pIC50, pKi: −log10 of the molar value. Values joined by “and” are separate entries in the source; they are usually repeats but may differ in a detail not shown here. Identical values can stand only once. “Also recorded” adds a separate entry of the source. No end group written: not given here.

The term pKi denotes −log10 of the Ki, conventionally taken in molar units. One may read the pIC50 as the IC50 on a negative log10 scale, so that one unit is a factor of ten.

The subject of data set [1] is factor V deficient plasma. Put plainly: Clotting activity of recombinant factor V molecules. How it is done: Determination of factor V/tor Va clotting activity of the recombinant molecules. Cofactor activity of wild type and mutant molecules was measured in a clotting assay using factor V deficient plasma prior and after activation by thrombin (15 min, 37° C.) and RVV-V activator (2 hr, 37° C.) as described. The values were standardized to the percentage of control. A linear semi-log graph was constructed using known concentrations of purified factor V (U/ml as a function of clotting time). The assay endpoint was determined by visualization of the fibrin clot. The activity of the factor VNa solution (U/ml) was determined by extrapolation from the graph. The concentration of the recombinant molecules was determined by a recently described ELISA. Finally, the numbers were combined to obtain the specific activity of the recombinant factor V solutions (U/mg).

In data set [2] the test system is prothrombinase. Description: Prothrombinase assay using purified reagents and chromogenic substrate (cofactor activity of recombinant factor Va species). As to conditions: activated with RVV-V activator or factor Xa.
For data set [3], the target named is T1, active-site-immobilized thrombin (Homo sapiens, UniProt P00734).
T1 construct: Factor Xa cleaves prothrombin to form thrombin; purchased Haematologic Technologies Inc. (Essex Junction, Vt.)
Put plainly: Direct binding of the peptides to thrombin-agarose (chromatography). As to conditions: 400 μg peptide, 2.5 ml column, elution 2M NaCl. As to the method:
Direct binding of the peptides to thrombin. Thrombin was immobilized onto agarose through the active site as described. Peptide solutions of HC1-HC5 (SEQ ID NO. 2-6, respectively), D13R (SEQ ID NO. 21), DYDYQ (SEQ ID NO. 11), and P15H (SEQ ID NO. 22) were dissolved in water to a given concentration and then diluted in 20 mM Hepes, 0.1 M NaCl, pH 7.4 in a manner that 400 μg was contained in each starting solution. In control experiments it was determined that the maximum amount of peptide that could be retained by the thrombin-agarose column was 400 μg. Since some of the peptides contain aromatic amino acid residues, their concentration was also measured by optical density.
Mass spectrometry instruments and conditions. The identity of all peptides found in the flow-through or the elution of the thrombin-agarose column was verified by mass spectrometry. Since the peptides were in a buffer solution, we used Liquid Chromatography/Mass Spectrometry (LC/MS) for their identification. In this procedure peptides are first separated from the salt content of the buffer using an HPLC system (HP 1100, HPLC gradient system, Agilent Technologies, Palo Alto Calif.) with a C18 column (1 mm×15 cm, GraceVydac, Hesperia Calif.) with buffers A (0.3% acetic acid in water) and B (0.3% acetic acid in acetonitrile). The elution of the column was monitored with a Micromass Quatro II ESI-Triple Quadrupole Mass Spectrometer (Waters, Milford Mass.). The data were collected using a Compaq Professional Workstation AP200 (Hewlett-Packard, Palo Alto Calif.) and analyzed by the software MassLynx v3.3 (Waters, Milford Mass.).
Direct interaction of hirudin-like peptides from factor tor Va heavy chain With thrombin-agarose. To ascertain that the peptides of interest are inhibitory of prothrombinase activity and contain a binding site for thrombin, the interaction of all peptides with active-site-immobilized thrombin was studied in chromatographic experiments and is shown in FIG. 5. In FIG. 5, small scale chromatography of hirudin-like peptides was performed on a 2.5 ml thrombin-agarose. Each run represents 400 μg of peptide. This amount of peptide was determined to saturate the specific sites of thrombin of the column used (2.5 ml). Elution was performed with 2M NaCl and was started at the point indicated by the arrow (fraction #30). The presence of the peptides in the corresponding fractions was monitored by absorbance at 280 nm (shown on the y axis) and by LC/MS (inset). […] Specifically, these peptides were treated similarly to all other peptides and similar fractions were collected. Aliquots from fractions #7 and #35 from each separate experiment were submitted to LC/MS analysis as described herein (depicted by the hatched arrows at the bottom of the chromatogram). The results from tube #7 from three chromatograms are depicted. The data are presented as % intensity of the signal as a function of the mass of the peptide divided by the charge (m/z). FIG. 5A, HC1 (Mr calculated 1268); FIG. 5B, HC2 (Mr calculated 1132); FIG. 5C, HC5 (Mr calculated 1053). The spectrum of HC1 has two major peaks: at 635.5 and at 424, and one minor peak at 1270 (1268+1). The peak at 635.5 represents the peptide (mass/charge) with two positive charges ([…]) i.e. [(1268+2=1270)]/2=635 whereas, the peak at 424 represents HC1 with three positive charges ([…]) i.e. [(1268+3=1271)]/3=424. […] HC5 spectrum has two major peaks: one at 528 and one at 352. The peak at 528 represents the peptide with two positive charges ([…]) i.e. [(1053+2=1055)]/2=527.5 while, the other peak represents HC5 with three positive charges ([M+31-]^2+) i.e. [(1053+3=1056)]/3=352. The minor peak at 1054 represents the peptide with one charge. It is noteworthy, that in gas phase the number of protons attached to each peptide depends on the number (quantity) of basic residues contained in each peptide. […] Thus, HC1 and HC5 are more likely to bind two or three protons than HC2. […]

Data set [4] addresses T2, prothrombinase (Homo sapiens, UniProt P00734).
T2 construct: purchased Haematologic Technologies Inc. (Essex Junction, Vt.)
Put plainly: Assay measuring thrombin formation (prothrombinase inhibition by peptides, DAPA fluorescence). Format: biochemical. Conditions: for pKi: calculated from IC50=Ki(1+S0/Km), Km 0.4 μM, S0 350 nM prothrombin, read-out: Ki of prothrombinase inhibition; for pIC50: factor Va 4 nM, factor Xa 10 nM, prothrombin 350 nM, PCPS 10 μM, peptide preincubated with factor Va; for type of inhibition of prothrombinase with respect to prothrombin: kinetic analyses, increasing prothrombin and peptide; for effect on prothrombinase / factor Va cofactor activity at fixed concentration: peptide 100 μM. As to the method: Assay measuring thrombin formation. The formation of thrombin was analyzed using the fluorescent thrombin inhibitor DAPA as described using a Perkin Elmer LS-50B Luminescence Spectrometer (Perkin-Elmer LLC, Norwalk Conn.) with λex=280 nm, λem=550 nm and a 500 nm long pass filter in the emission beam (Schott KV-500). […] In all cases peptides were preincubated with factor tor Va prior to the assay as described in the legend to the figures. The final concentration of factor tor Va in the mixture was 4 nM with factor Xa at 10 nM, prothrombin at 350 nM, DAPA at 700 nM, in the presence of PCPS vesicles (10 μM). The initial rate of thrombin formation (nM IIa·min^−1) was calculated as described during the initial 5-10 sec of the reaction. To verify if the peptides have any effect on the active-site of thrombin, control experiments were performed as follows: a given peptide (at 100 μM) was incubated in the assay buffer containing DAPA (700 nM); the base line was monitored for 30 sec; thrombin (350 nM) was then added to the mixture and the fluorescent intensity resulting from the complexation of DAPA with the active site of thrombin was monitored for 60 sec. The slope of the reaction measuring thrombin formation in the presence of a given peptide during the first 5 sec was calculated and compared to the slope of a reaction obtained in the absence of peptide. It is noteworthy that under the conditions employed the thrombin-DAPA interaction occurred fast and the calculated slope of the reaction was sensitive to all parameters used. […] All experiments were performed in triplicates or as indicated. The concentration of each peptide given in the figures and figure legends is their final concentration in the assay. […] In some cases the data were also analyzed and plotted using DeltaGraph (DeltaPoint, Monterey, Calif.).
Specifically, peptides were incubated with factor tor Va as described herein at a fixed concentration (100 μM). The percent of factor tor Va cofactor activity was calculated by comparing the activity of prothrombinase in the presence of a given peptide to the activity of prothrombinase determined in a control reaction in the absence of peptide and in the presence of factor Xa. […] The control peptide represents a pentadecapeptide from the middle portion of factor tor Va heavy chain (P15H) (SEQ ID NO. 22). […] All other peptides from region 680-709 had no significant effect on prothrombinase activity.
HC3 represents amino acid sequence 690-699 of factor tor Va heavy chain; HC4 contains the sequence 695-704 of human factor tor Va heavy chain; P15H represents amino acid sequence 337-351 from the middle portion of human factor tor Va heavy chain. […] The concentration of each peptide given on the x axis represents its final concentration in the prothrombinase mixture. […] Thus, both peptides show similar inhibitory potential.

The target of data set [5] is T3, [OG488]-EGR-hXa-human factor tor Va (Homo sapiens, UniProt P00742).
T3 construct: purchased Haematologic Technologies Inc. (Essex Junction, Vt.)
T3 sequence (P00742 41-179 limits assumed): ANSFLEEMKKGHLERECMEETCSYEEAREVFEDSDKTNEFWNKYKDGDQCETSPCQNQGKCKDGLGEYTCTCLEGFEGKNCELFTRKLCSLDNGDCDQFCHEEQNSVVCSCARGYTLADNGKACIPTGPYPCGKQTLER
T3 sequence (P00742 235-488 limits assumed): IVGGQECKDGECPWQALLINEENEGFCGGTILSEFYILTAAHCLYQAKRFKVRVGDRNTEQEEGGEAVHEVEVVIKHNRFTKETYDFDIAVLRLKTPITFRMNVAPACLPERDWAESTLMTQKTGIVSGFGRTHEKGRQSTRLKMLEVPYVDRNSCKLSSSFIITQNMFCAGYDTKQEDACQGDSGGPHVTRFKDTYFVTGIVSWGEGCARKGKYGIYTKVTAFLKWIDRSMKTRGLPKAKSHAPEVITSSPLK
Put plainly: Fluorescence anisotropy of preformed membrane-bound [OG488]-EGR-hXa-factor Va complex. The data set is classed as binding. As to conditions: up to 300 μM peptide. How it is done: Fluorescence Anisotropy measurements. Fluorescence anisotropy of [OG488]-EGR-hXa was measured using a Perkin Elmer LS-50B Luminescence Spectrometer in L-format as recently described. Anisotropy measurements were performed in a quartz cuvette under constant stirring (low) with λex=490 nm, λem=520 nm with a long pass filter (Schott KV-520) in the emission beam. […] The concentration of peptide given in each graph is the final concentration of the peptide in the assay mixture. […] In some cases the data were also plotted using DeltaGraph (DeltaPoint, Monterey, Calif.).
HC3 and HC4 were also tested for their ability to interfere with the fluorescence anisotropy of a preformed complex composed of membrane-bound [OG488]-EGR-hXa-human factor tor Va as described. […] The peptides must thus impair another function of the cofactor within prothrombinase.
(In general: In fluorescence polarisation assays a small probe gives low polarisation when free and higher when bound to something large.)

As for “Factor VaRVV^2K2F: quadruple mutant activated with RVV-V activator”, the “ability to promote clotting” value in data set [1] was “unable to promote clotting”. Besides, in data set [1] (factor V species at 2.5 nM), the Activity is recorded as 0.002 U/ml, the Specific activity was 2.4 U/mg and the clotting time came to 73.1 ± 4 s. Moreover, the “times less cofactor activity than wild type molecule activated under similar conditions” value in the data set on prothrombinase [2] was approximately 22 times.
On to DYDYQNRLAA [HC4], for which the “interaction with immobilized thrombin (thrombin-agarose)” value in data set [3] was “eluted from the column with high-salt buffer; also recorded: interact with immobilized thrombin”. Further, the “Vmax of prothrombinase in presence of increasing peptide” value at prothrombinase [4] (HC4 0.5-2 μM, increasing prothrombin) was approximately 525±30 nM IIa/min. Besides, at prothrombinase [4], the pKi was 5.28 and ~5.28; the pIC50 is 5.00 and ~5.00; the “type of inhibition of prothrombinase with respect to prothrombin” value is on record as “competitive type of inhibition; also recorded: competitive inhibitors”; the “effect on prothrombinase / factor Va cofactor activity at fixed concentration” value is recorded as “inhibited prothrombinase; also recorded: complete inhibition”. Moreover, the “interference with binding of factor Va to [OG488]-EGR-hXa (anisotropy)” value in data set [5] is reported as “No significant decrease; also recorded: unable to interfere with the binding of factor tor Va”.
On to EESDADYDYQ [HC3], for which the “interaction with immobilized thrombin (thrombin-agarose)” value in data set [3] is reported as “eluted from the column with high-salt buffer; also recorded: interact with immobilized thrombin”. In addition, at prothrombinase [4], the pKi was 5.20 and ~5.20; the negative-log IC50 (pIC50) was 4.92 and ~4.92; the “type of inhibition of prothrombinase with respect to prothrombin” value was “competitive inhibitors”; the “effect on prothrombinase / factor Va cofactor activity at fixed concentration” value was “inhibited prothrombinase; also recorded: complete inhibition”. Besides, the “interference with binding of factor Va to [OG488]-EGR-hXa (anisotropy)” value in data set [5] was “No significant decrease; also recorded: unable to interfere with the binding of factor tor Va”.

(Values after US20100267638A1, “EXOSITE-DIRECTED THROMBIN INHIBITORS” (CLEVELAND STATE UNIVERSITY, priority 2003, published 2010).)
